Earlier results in US20040248925A1, “Use of 4-phenyl substituted tetrahydroisoquinolines in the treatment of pain, migraine and urinary incontinence” (priority 2002, published 2004).

Settings: following treatment with imipramine; background statement

SMILES: CN(C)CCCN1c2ccccc2CCc2ccccc21 [imipramine, Imipramine]
- further patients in whom improvements can be seen: 15-20%
- patients in whom enuresis can be cured: over 50%
